According to patent publication US20100022648A1, “ORAL USE OF AT LEAST ONE MONOUNSATURATED FATTY ACID FOR HAIR IMPROVEMENT” (L'OREAL, priority 2006, published 2010):
Marks after values point to notes of the source that are not given here.

Test system: dermal fibroblasts
Assay: Formation of glycation products in cultures of dermal fibroblasts (Dot Blot immunodetection, densitometric analysis)
Type: cell-based
Details: culture of dermal fibroblasts; for % GP relative to the control: GP = glycation products, Aminoguanidine 1 mg/ml, Petroselinic acid 0.885 mM, control = 100, p < 0.01; for decrease in the formation of glycation products relative to the control: same concentrations as Table 1
Procedure: Dermal fibroblasts are cultured by the usual techniques that are well known by a person skilled in the art.
The glycation products are quantified by densitometric analysis of the spots in immunodetection of the glycation products (Dot Blot method), relative to a control (culture of fibroblasts without addition of the product).
Thus, aminoguanidine reduces the amount of glycation product relative to the control by 58%.
In another case, the culture of fibroblasts is supplemented with petroselinic acid.

Compound | % GP relative to the control | % GP relative to the control (listed as aminoguanidine) [%] | decrease in the formation of glycation products relative to the control [%] | % GP relative to the control (listed as petroselinic acid) [%]
N=C(N)NN [Aminoguanidine, aminoguanidine] | 42* % | 42 | 58 | –
CCCCCCCCCCC/C=C\CCCCC(=O)O [Petroselinic acid, petroselinic acid] | 73* % | – | 27 | 73
